The values below come from patent US7326721B2 (Hypnion, Inc., priority 2003, dated 2008).

For the first series, the target named is T1, H1 histamine receptor (Bos taurus, UniProt P30546).
T1 construct: the receptors were obtained from bovine cerebellar membrane tissue; from tissue; host or cells: bovine cerebellar membranes
T1 sequence (P30546 whole entry): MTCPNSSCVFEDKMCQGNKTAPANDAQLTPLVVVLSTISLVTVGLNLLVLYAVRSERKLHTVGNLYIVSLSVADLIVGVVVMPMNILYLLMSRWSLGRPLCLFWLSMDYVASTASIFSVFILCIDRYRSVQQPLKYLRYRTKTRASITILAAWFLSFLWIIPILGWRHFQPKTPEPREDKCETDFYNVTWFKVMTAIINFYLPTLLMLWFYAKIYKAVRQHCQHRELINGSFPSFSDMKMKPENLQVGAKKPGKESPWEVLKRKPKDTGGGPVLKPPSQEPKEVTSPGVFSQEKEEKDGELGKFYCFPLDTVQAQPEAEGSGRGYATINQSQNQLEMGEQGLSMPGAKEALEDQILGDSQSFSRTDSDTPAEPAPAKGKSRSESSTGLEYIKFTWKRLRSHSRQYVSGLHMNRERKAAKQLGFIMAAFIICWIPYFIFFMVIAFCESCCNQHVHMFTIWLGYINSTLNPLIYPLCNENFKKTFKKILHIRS
In words: Histamine H1 competitive binding assay ([3H]pyrilamine). On the set-up: species or system bovine. Particulars: read-out: Ki H1.
With `COc1ccc2c(c1)COc1ccccc1C2=C1CCN(CC(C)(C)C(=O)O)CC1` [Compound 50a], the Ki stood at 0.0272 µM.
Same read-out and setting: with `O=C(O)C1(CN2CCC(=C3c4ccccc4COc4ccccc43)CC2)CC1` [Compound 69b] the figure was 0.0549 µM; with `O=C(O)CCCN1CCC(=C2c3ccccc3COc3ccccc32)CC1` [Compound 70e], 0.136 µM.

Another series concerns male Wistar rats.
Assay: not given
The following applies: 10 mg/kg oral. The class given is in vivo. The method, then: The Irwin screen can provide useful information on potential side effects of compounds on general physiological and behavioural functions. The screen was conducted by administering the test compounds orally in 0.25% aqueous methylcellulose using male Wistar rats, a frequently used species in such studies and for which background data are readily available.
The Irwin screen tests for numerous parameters in animals that have been administered the test compound. For example, the screen can include: in-cage effects, e.g., dispersion, respiratory rate, locomotor activity, restlessness, fighting, alertness, apathy, and exophthalmus; in-arena effects, e.g., transfer arousal, spatial locomotion, ptosis, startle, tail elevation, piloerection, touch escape, positional passivity, catalepsy, tighting reflex, visual placing, grip strength, pinna, corneal, pain response, and wire manoeuvre; parameters observed in handling, e.g., cyanosis, cutaneous blood flow, hypothermia, body tone, pupil size, light-pupil response, lacrimation, grooming, red staining, salivation, and provoked biting; general scores e.g., fearfulness, irritability, abnormal gait, abnormal body carriage, tremors, twitches, convulsions, bizarre behaviour, writhing, vocalisation, diarrhoea, number of defaecations, number of urinations, moribund, lethality, and abnormalities detected. Further details can be found in Irwin, S; Comprehensive observational assessment: I a. A systematic, quantitative procedure for assessing the behavioural and physiological state of the mouse.
Irwin screening of the disclosed sleep-inducing agents was performed by Covance (Princeton, N.J.) according to Irwin, above; Covance Standard Operating Procedure (current revision of SOP PHARM 8.10); relevant regulatory authority guidelines ICH (International Committee for Harmonization) Guideline (Topic S7A; CPMP/ICH/539/00) on Safety Pharmacology Studies for human pharmaceuticals (November 2000); and all procedures carried out on live animals were subject to the provisions of United Kingdom Law, in particular the Animals (Scientific Procedures) Act, 1986. which obliges all UK laboratories to maintain a local ethical review process to ensure that all animal use in the establishment is carefully considered and justified; that proper account is taken of all possibilities for reduction, refinement or replacement and that high standards of accommodation and care are achieved.
All test compound formulations were prepared on the day of dosing by Covance Harrogate Dispensary. The test compounds were formulated in 0.25% aqueous methylcellulose at the highest concentration required. Lower doses were obtained by serial dilution of the highest concentration using 0.25% aqueous methylcellulose. Dose levels are expressed in terms of the amount of test compound administered without regard to purity or active content. All formulations were stored at room temperature (nominally 10 to 30° C.) in sealed containers and protected from light.
An adequate number of male Wistar (Crl:WI(Glx/BRL/Han) BR:WH) rats were obtained from Charles River Ltd. (Margate, Kent, United Kingdom). The rats were approximately 5 weeks of age and weighed between 150 and 170 g on arrival. The animals were housed in groups of no more than six in polypropylene cages (33×15×13 cm) or (45×28×20 cm) with solid floors and Grade 10 woodflakes (Datesand Ltd., Cheshire, United Kingdom) as bedding. The cages were cleaned and dried before use. Aspen chew blocks were placed within the cages as a form of environmental enrichment. Routinely, holding rooms were maintained within acceptable limits for temperature and relative humidity (nominally 19 to 25° C. and 40% to 70%, respectively). These rooms were illuminated by fluorescent light for 12 hours out of each 24 hour cycle and designed to receive at least 15 fresh air changes per hour. […]
In the case of `O=C(O)C1(CCN2CCC(=C3c4ccccc4COc4ccccc43)CC2)CC1` [Compound 70b], the “Irwin at mg/kg dose” value was “clean”.

Still in this series, the particulars now being: 30 mg/kg oral.
Take `O=C(O)C1(CCN2CCC(=C3c4ccccc4COc4ccccc43)CC2)CC1` [Compound 70b]: the “Irwin at mg/kg dose” value is “clean”.
On to `O=C(O)CCCN1CCC(=C2c3ccccc3COc3ccccc32)CC1` [Compound 70e], for which the “Irwin at mg/kg dose” value is recorded as “clean”.

Staying with this series, now noted: 100 mg/kg oral.
`O=C(O)C1(CCN2CCC(=C3c4ccccc4COc4ccccc43)CC2)CC1` [Compound 70b]: the “Irwin at mg/kg dose” value is “some side effects”.
In the case of `O=C(O)CCCN1CCC(=C2c3ccccc3COc3ccccc32)CC1` [Compound 70e], the “Irwin at mg/kg dose” value was “some side effects”.

Still in this series, the particulars now being: rat, in vivo.
`COc1ccc2c(c1)COc1ccccc1C2=C1CCN(CC(C)(C)C(=O)O)CC1` [Compound 50a]: the “Irwin at mg/kg dose” value is given as “clean”.
Still for that read-out and setting: with `O=C(O)C1(CN2CCC(=C3c4ccccc4COc4ccccc43)CC2)CC1` [Compound 69b] the entry was “clean”; with `O=C(O)CCCN1CCC(=C2c3ccccc3COc3ccccc32)CC1` [Compound 70e], 10, 30 clean; 100 some side effects.

The target of a further series is hERG (Homo sapiens, UniProt Q12809).
hERG, sequence (Q12809 whole entry): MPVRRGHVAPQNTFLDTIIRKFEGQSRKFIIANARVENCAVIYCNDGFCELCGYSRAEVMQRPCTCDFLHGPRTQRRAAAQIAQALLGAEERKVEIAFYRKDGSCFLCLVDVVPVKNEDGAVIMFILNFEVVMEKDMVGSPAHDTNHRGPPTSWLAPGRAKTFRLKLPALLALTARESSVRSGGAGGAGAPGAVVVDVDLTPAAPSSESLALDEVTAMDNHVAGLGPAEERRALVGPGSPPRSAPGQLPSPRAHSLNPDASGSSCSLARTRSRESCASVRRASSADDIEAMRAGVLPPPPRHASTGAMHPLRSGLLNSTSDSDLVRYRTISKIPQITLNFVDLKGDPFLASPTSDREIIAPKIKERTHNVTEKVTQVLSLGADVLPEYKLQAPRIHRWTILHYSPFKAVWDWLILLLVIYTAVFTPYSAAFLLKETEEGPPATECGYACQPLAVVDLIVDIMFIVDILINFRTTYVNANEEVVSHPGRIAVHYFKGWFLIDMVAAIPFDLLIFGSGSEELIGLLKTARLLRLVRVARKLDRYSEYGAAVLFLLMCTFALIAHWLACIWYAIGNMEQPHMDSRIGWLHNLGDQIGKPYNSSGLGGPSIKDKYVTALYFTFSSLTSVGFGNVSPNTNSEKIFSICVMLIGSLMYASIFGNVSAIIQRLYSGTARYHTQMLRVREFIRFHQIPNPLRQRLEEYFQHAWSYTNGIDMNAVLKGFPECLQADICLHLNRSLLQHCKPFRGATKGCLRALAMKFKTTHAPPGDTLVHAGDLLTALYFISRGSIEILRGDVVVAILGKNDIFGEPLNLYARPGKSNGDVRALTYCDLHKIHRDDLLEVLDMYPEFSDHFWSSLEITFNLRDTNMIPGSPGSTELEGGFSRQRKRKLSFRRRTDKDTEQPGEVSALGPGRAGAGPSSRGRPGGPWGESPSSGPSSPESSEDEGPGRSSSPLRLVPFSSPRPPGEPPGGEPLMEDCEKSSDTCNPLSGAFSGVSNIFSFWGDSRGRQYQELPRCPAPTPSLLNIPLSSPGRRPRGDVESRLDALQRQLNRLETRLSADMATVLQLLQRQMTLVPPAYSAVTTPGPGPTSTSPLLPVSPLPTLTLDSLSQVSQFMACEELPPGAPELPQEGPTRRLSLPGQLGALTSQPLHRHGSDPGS
Assay: not given
Conditions: not given
Consider `O=C(O)CCCN1CCC(=C2c3ccccc3COc3ccccc32)CC1` [Compound 70e], for which the “hERG at micromolar (% blocking of the hERG channel)” value stood at 2.7% @ 1.

Staying with this series, now noted: concentration not given.
Consider `O=C(O)C1(CCN2CCC(=C3c4ccccc4COc4ccccc43)CC2)CC1` [Compound 70b], for which the “hERG at micromolar (% blocking of the hERG channel)” value was 50.2%.

Staying with this series, now noted: human, 10 µM, pH 7.4.
Regarding `COc1ccc2c(c1)COc1ccccc1C2=C1CCN(CC(C)(C)C(=O)O)CC1` [Compound 50a], the “hERG at micromolar (% blocking of the hERG channel)” value is 9.7% @ 10.
The same measure, in the same setting: with `O=C(O)C1(CN2CCC(=C3c4ccccc4COc4ccccc43)CC2)CC1` [Compound 69b] the figure was 12.6% @ 10.

The next series concerns adult male Wistar rats. In words: SCORE-2000 sleep-wakefulness, locomotor activity and body temperature monitoring. The class given is in vivo, rat. The following applies: dose 3 mg/kg oral at CT-18.
Molecule `COc1ccc2c(c1)COc1ccccc1C2=C1CCN(CC(C)(C)C(=O)O)CC1` [Compound 50a] showed an LUSB of 4.8 min and an NREM of 12.7 min.
Taken in the same sequence, the figures for `O=C(O)C1(CN2CCC(=C3c4ccccc4COc4ccccc43)CC2)CC1` [Compound 69b] were 5.9 min and 14.9 min.
In turn, `O=C(O)CCCN1CCC(=C2c3ccccc3COc3ccccc32)CC1` [Compound 70e] yielded an LUSB of 6.6 min and an NREM of 25.7 min.

The series is the same for the next values; noted with them: dose 10 mg/kg oral at CT-18.
`COc1ccc2c(c1)COc1ccccc1C2=C1CCN(CC(C)(C)C(=O)O)CC1` [Compound 50a]: the LUSB was 9.3 min and the NREM is 32.6 min.
Taken in the same sequence, the figures for `O=C(O)C1(CN2CCC(=C3c4ccccc4COc4ccccc43)CC2)CC1` [Compound 69b] were 6.2 min and 44.3 min.
The molecule `O=C(O)C1(CCN2CCC(=C3c4ccccc4COc4ccccc43)CC2)CC1` [Compound 70b] displayed an LUSB of 8.3 min.
`O=C(O)CCCN1CCC(=C2c3ccccc3COc3ccccc32)CC1` [Compound 70e] came in with an LUSB of 6.6 min and an NREM of 27.4 min.

Still in this series, the particulars now being: dose 15 mg/kg oral at CT-18.
The molecule `O=C(O)C1(CN2CCC(=C3c4ccccc4COc4ccccc43)CC2)CC1` [Compound 69b] displayed an LUSB of 14.4 min and an NREM of 43.4 min.

The same series, now with this note: dose 20 mg/kg oral at CT-18.
The molecule `O=C(O)C1(CN2CCC(=C3c4ccccc4COc4ccccc43)CC2)CC1` [Compound 69b] displayed an LUSB of 11.6 min and an NREM of 39.4 min.

Staying with this series, now noted: dose 30 mg/kg oral at CT-18.
`COc1ccc2c(c1)COc1ccccc1C2=C1CCN(CC(C)(C)C(=O)O)CC1` [Compound 50a] yielded an LUSB of 11.2 min and an NREM of 41.9 min.
Taken in the same sequence, the figures for `O=C(O)C1(CN2CCC(=C3c4ccccc4COc4ccccc43)CC2)CC1` [Compound 69b] were 14 min and 41.6 min.
`O=C(O)CCCN1CCC(=C2c3ccccc3COc3ccccc32)CC1` [Compound 70e]: the LUSB turned out to be 15 min and the NREM was determined as 43.3 min.

The target of a further series is T2, M2 muscarinic receptor (Homo sapiens, UniProt P08172).
T2 sequence (P08172 1-466): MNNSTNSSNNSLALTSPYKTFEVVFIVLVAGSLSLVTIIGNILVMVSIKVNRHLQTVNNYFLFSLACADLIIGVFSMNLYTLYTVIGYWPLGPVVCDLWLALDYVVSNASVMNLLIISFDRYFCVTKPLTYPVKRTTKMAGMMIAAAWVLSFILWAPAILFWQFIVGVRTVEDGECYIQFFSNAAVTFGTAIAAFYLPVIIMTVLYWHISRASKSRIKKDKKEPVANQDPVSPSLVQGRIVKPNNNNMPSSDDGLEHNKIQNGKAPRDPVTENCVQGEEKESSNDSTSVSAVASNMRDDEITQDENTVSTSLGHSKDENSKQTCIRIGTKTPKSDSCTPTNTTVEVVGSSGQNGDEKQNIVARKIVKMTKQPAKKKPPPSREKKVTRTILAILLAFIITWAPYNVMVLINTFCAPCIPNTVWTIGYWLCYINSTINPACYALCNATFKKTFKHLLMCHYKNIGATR
In words: Muscarinic M2 binding assay. Details: purchased PerkinElmer, Inc., Wellesley, Mass; host or cells: CHO cells. Particulars: read-out: Ki M2.
As for `COc1ccc2c(c1)COc1ccccc1C2=C1CCN(CC(C)(C)C(=O)O)CC1` [Compound 50a], the Ki was > 10 µM.
Same read-out and setting: next, `O=C(O)C1(CN2CCC(=C3c4ccccc4COc4ccccc43)CC2)CC1` [Compound 69b]: > 10 µM; `O=C(O)CCCN1CCC(=C2c3ccccc3COc3ccccc32)CC1` [Compound 70e]: > 10 µM.

Another series has as its target T3, M1 muscarinic receptor (Homo sapiens, UniProt P11229).
T3 sequence (P11229 1-460): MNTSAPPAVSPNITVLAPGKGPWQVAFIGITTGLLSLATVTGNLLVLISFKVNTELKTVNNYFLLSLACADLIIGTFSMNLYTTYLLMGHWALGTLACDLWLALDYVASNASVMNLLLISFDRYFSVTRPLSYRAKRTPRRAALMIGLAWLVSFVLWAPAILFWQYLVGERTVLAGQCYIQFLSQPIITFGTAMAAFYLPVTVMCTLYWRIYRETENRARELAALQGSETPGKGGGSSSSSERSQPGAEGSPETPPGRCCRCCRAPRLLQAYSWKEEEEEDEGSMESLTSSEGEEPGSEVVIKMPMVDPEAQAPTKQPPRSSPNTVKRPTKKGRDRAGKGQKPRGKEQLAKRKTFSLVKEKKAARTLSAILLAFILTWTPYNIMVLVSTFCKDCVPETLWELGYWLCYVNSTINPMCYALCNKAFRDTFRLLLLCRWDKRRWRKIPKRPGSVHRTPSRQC
The series is described as follows: Muscarinic M1 binding assay ([3H]-scopolamine, N-methyl chloride). Particulars: read-out: Ki M1. On the set-up: purchased PerkinElmer, Inc., Wellesley, Mass; host or cells: CHO cells.
Turning to `COc1ccc2c(c1)COc1ccccc1C2=C1CCN(CC(C)(C)C(=O)O)CC1` [Compound 50a], the Ki is > 10 µM.
Take `O=C(O)C1(CN2CCC(=C3c4ccccc4COc4ccccc43)CC2)CC1` [Compound 69b]: the inhibition constant (Ki) was > 10 µM.
Same read-out and setting: with `O=C(O)CCCN1CCC(=C2c3ccccc3COc3ccccc32)CC1` [Compound 70e] the figure was > 10 µM.

A further series deals with M3 muscarinic receptor (Homo sapiens, UniProt P20309). In words: Muscarinic M3 binding assay. On the set-up: purchased PerkinElmer, Inc., Wellesley, Mass; host or cells: CHO cells. The following applies: read-out: Ki M3.
M3 muscarinic receptor, sequence (P20309 whole entry): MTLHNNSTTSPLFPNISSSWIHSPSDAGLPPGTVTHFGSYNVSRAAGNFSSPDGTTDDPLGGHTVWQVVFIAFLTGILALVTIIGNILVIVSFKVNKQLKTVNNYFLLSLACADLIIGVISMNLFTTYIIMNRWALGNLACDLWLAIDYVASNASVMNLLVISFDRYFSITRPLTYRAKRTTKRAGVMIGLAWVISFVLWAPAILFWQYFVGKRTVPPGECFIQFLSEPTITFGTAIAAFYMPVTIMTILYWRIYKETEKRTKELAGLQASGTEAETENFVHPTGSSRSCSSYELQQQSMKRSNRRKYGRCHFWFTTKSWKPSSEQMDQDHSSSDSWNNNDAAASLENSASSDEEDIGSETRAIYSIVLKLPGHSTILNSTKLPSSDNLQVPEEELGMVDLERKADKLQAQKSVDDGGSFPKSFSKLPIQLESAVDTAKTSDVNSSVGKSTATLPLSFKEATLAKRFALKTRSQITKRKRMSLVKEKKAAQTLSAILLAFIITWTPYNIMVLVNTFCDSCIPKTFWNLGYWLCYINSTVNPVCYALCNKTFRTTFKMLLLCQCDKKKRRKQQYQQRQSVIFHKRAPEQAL
Consider `COc1ccc2c(c1)COc1ccccc1C2=C1CCN(CC(C)(C)C(=O)O)CC1` [Compound 50a], for which the Ki is > 10 µM.
With `O=C(O)C1(CN2CCC(=C3c4ccccc4COc4ccccc43)CC2)CC1` [Compound 69b], the Ki was > 10 µM.
Turning to `O=C(O)CCCN1CCC(=C2c3ccccc3COc3ccccc32)CC1` [Compound 70e], the inhibition constant Ki was > 10 µM.

A word on the Ki: it is the dissociation constant of the complex between target and ligand, obtained from inhibition or displacement.
